Patent publication US20260315431A1, “NANOMATERIAL ENCAPSULATED BIOFILM INHIBITORS FOR DENTAL CARIES TREATMENT” (THE UAB RESEARCH FOUNDATION, priority 2023, published 2026)
Entries after “also recorded” stand apart in the source; their conditions may differ.

Legend:
S. mutans UA159 = test: Planktonic growth, S. mutans UA159 (OD470); assay type: cell-based, Streptococcus mutans
Description: (§1) The bacterial strains, S. mutans UA159, S. gordonii DL1, and S. sanguinis SK36 were inoculated statically at 37° C. under 5% CO2 in Todd Hewitt Broth (THB) for 24 h. The cultures were then diluted with fresh THB (1:5) and reinoculated until optical density at 470 nm (OD470) reached 1. The optical density was read using BioTek 800TS microplate reader at 470 nm for bacterial growth and 562 nm for biofilm stained with crystal violet. Data was plotted in Graphpad Prism9.
(§2) S. mutans, S. gordonii, and S. sanguinis growth assays. Effects of compounds on S. mutans and commensal bacterial growth were evaluated using the growth assay as described^69. S. mutans UA159, S. gordonii DL1, S. sanguinis SK36, cultures were grown for 24 h under 5% CO2 at 37° C. These cultures were then reinoculated with fresh THB (1:5) until OD470=1 when the bacteria were ready to be used. Different concentrations of the inhibitor were assayed in chemically defined media (CDM) with 1% of the bacteria, 1% sucrose and 1% DMSO in 96 well plates. The 96 well plates were incubated under 5% CO2 at 37° C. for 16 h. Growth of the bacteria was read after 16 h at OD470. Each assay was carried out at least in triplicate.
(§3) All bacterial strains (S. mutans UA159, S. gordonii DL1, and S. sanguinis SK36) were inoculated statically at 37° C. under 5% CO2 environment in Todd Hewitt Broth (THB) for 24 h^[61]. The cultures were then diluted with fresh THB (1:5) and reinoculated until the optical density at 470 nm reaches 1. The optical density was read using BioTek 800 TS absorbance reader at 470 nm for bacterial growth and 562 nm for biofilm stained with crystal violet. Data was plotted in Prism 10.0.2.
as §2, with “Effects” for “S. mutans, S. gordonii, and S. sanguinis growth assays. Effects”, “PEHA5, PEHA6, HA5 or HA6” for “compounds”, “described^[62].” for “described^69.”, “PEHA5, PEHA6, HA5 or HA6” for “inhibitor”, “CDM” for “chemically defined media (CDM)”

S. sanguinis SK36 = test: Commensal biofilm inhibition, S. sanguinis SK36 (crystal violet, OD562); assay type: cell-based, Streptococcus sanguinis; details: 25 μM
Description: as §1
Biofilm inhibition assays. Biofilm inhibition assays were performed in polystyrene microtiter 96 well plates. […] After reading optical density for bacterial growth, the plate was gently washed with water, dried, and stained with crystal violet, and then gently rinsed again with deionized water leaving the stained biofilm at the bottoms of the wells. Biofilms was dissolved in 200 μL of 30% acetic acid and absorbance at 562 nm was used read to determine biofilm biomass. […] Biofilm inhibitory concentration (IC50) of the compounds was determined by serial dilutions.
as §3, with “The cultures were then diluted with fresh THB (1:5) and reinoculated until the optical density at 470 nm reaches 1.” left out, “Data was plotted in Prism 10.0.2.” left out

S. gordonii DL1 = test: Planktonic growth, S. gordonii DL1 (OD470); assay type: cell-based, Streptococcus gordonii
Description: as §1, §2, §3
as §2, with “Effects” for “S. mutans, S. gordonii, and S. sanguinis growth assays. Effects”, “PEHA5, PEHA6, HA5 or HA6” for “compounds”, “described^[62].” for “described^69.”, “PEHA5, PEHA6, HA5 or HA6” for “inhibitor”, “CDM” for “chemically defined media (CDM)”

## O=C1/C(=C/c2cc(O)c(O)cc2O)Oc2ccccc21 [HA5, 2-[(2′,4′,5′-Trihydroxyphenyl)methylidene]-2,3-dihydro-1-benzofuran-3-one]
S. mutans UA159; 25 μM
  planktonic growth of S. mutans: did not affect the planktonic growth
S. mutans UA159; 50 μM
  planktonic growth of S. mutans: did not inhibit the planktonic growth; also recorded: no effect on growth; also recorded: did not inhibit the growth significantly
S. mutans UA159; 50 μM and 100 μM
  growth of S. mutans: did not inhibit S. mutans growth
S. sanguinis SK36
  S. sanguinis biofilm: did not significantly reduce; also recorded: minimal
S. gordonii DL1; 25 μM
  planktonic growth of S. gordonii: did not affect the planktonic growth
S. gordonii DL1; 50 μM and 100 μM (100 μM)
  growth of S. gordonii: did not inhibit the growth; also recorded: does not inhibit the growth
S. gordonii DL1; DL1
  dose without growth inhibition of commensals (100 μM) relative to biofilm IC50: 14 fold
S. gordonii DL1; at biofilm inhibiting doses
  growth of S. gordonii: without affecting the growth

## O=C1/C(=C/c2cc(O)c(O)c(O)c2)Oc2ccccc21 [HA6, 2-[(3′,4′,5′-Trihydroxyphenyl)methylidene]-2,3-dihydro-1-benzofuran-3-one]
S. mutans UA159; 25 μM and 50 μM
  viability of S. mutans: did not inhibit S. mutans viability
S. mutans UA159; 50 μM
  planktonic growth of S. mutans: did not inhibit the planktonic growth; also recorded: no effect on growth; also recorded: inhibited the planktonic growth slightly
S. sanguinis SK36
  S. sanguinis biofilm: did not significantly reduce the biofilms
S. gordonii DL1; 25 μM and 50 μM
  growth inhibition of S. gordonii: about 10%
S. gordonii DL1; at biofilm inhibiting doses
  growth of S. gordonii: without affecting the growth
